# Reference: patent US7939110B2, “Composition and method for treating autoimmune disease and mucosal disorder” (National Yang-Ming University, priority 2005, dated 2011)
# Experiments:
# C57BL/6j mice [1] = experiment: Ovalbumin-specific IgG in serum, oral tolerance model; format: in vivo
# Protocol: Since it is well-known that animals can be immunized by ovalbumin (OVA) to establish the animal model for the autoimmune disease (The Journal of Pharmacology and Experimental Therapeutics 288:849-857, 1999), the present invention establishes an animal model which includes mice with OVA-induced autoimmune disease, and the mice are treated with DeCaPS to enhance oral tolerance. C57/BL6j mice ([…]) were orally treated with 0.5 mg/ml ovalbumin (OVA) in drinking water at day 4 and day 5, and DeCaPS was administrated to the C57/BL6j mice as an adjuvant at dosages of 10 mg/kg/day, 40 mg/kg/day and 160 mg/kg/day at days 3-7. 50 μg of OVA with Complete Freund's Adjuvant (CFA) was administrated to the mice as an antigen via i.p. injection at day 8 and with OVA on day 24. OVA-specific IgG and IgM in the blood was collected at day 22 and day 30. The mice were sacrificed at day 32 to collect an intestinal lavage solution of the intestinal mucosa and the lung mucosa to detect IgA in response to OVA. The detailed experimental procedures are illustrated in the following table II. […]
# C57BL/6j mice [2] = experiment: Ovalbumin-specific IgM in serum, oral tolerance model; format: in vivo
# Protocol: Since it is well-known that animals can be immunized by ovalbumin (OVA) to establish the animal model for the autoimmune disease (The Journal of Pharmacology and Experimental Therapeutics 288:849-857, 1999), the present invention establishes an animal model which includes mice with OVA-induced autoimmune disease, and the mice are treated with DeCaPS to enhance oral tolerance. […] 50 μg of OVA with Complete Freund's Adjuvant (CFA) was administrated to the mice as an antigen via i.p. injection at day 8 and with OVA on day 24. OVA-specific IgG and IgM in the blood was collected at day 22 and day 30. The mice were sacrificed at day 32 to collect an intestinal lavage solution of the intestinal mucosa and the lung mucosa to detect IgA in response to OVA. The detailed experimental procedures are illustrated in the following table II.
# With comparison to the IgM antibody level expressed in the control group at day 22, the IgM antibody level expressed in the normal group was decreased by about 49% (p<0.05), the IgM antibody level-expressed in the positive control group was suppressed by about 87% (p<0.05), the IgM antibody level-expressed in the DC-1 group was suppressed by about 46% (p<0.02), the IgM antibody level-expressed in the DC-2 group was suppressed by about 88% (p<0.001), and the IgM antibody level in the DC-3 group was suppressed by about 86% (p<0.001). […]
# [3] = day 22, positive control group (oral OVA days 1-5, no DeCaPS)
# [4] = day 30, positive control group (oral OVA days 1-5, no DeCaPS)
substance,measurement,setting,value
ovalbumin [ovalbumin antigen],IgG antibody level suppressed vs control group,C57BL/6j mice [1]; [3],about 94%
same,IgG antibody level suppressed vs control group,C57BL/6j mice [1]; [4],about 75%
same,IgM antibody level suppressed vs control group,C57BL/6j mice [2]; [3],about 87%
same,IgM antibody level suppressed vs control group,C57BL/6j mice [2]; [4],about 72%
